Source: patent US20060069074A1, “Genetic predictor of efficacy of anti-asthmatic agents for improving pulmonary function” (priority 2004, published 2006)

How the values were obtained:
[1] = tested on: β2-adrenergic receptor (B2AR); details: cited from earlier work
[2] = Double-blind randomized crossover trial of montelukast and fluticasone propionate in children with asthma; FEV1 response by B2AR diplotype; type: in vivo, human; details: all children, 8-week treatment periods
Excerpt: (§1) Briefly, 144 children ages 6 to 17 years with mild to moderate persistent asthma were enrolled. […] Children with severe asthma were excluded. Strunk R, et al., supra. Informed consent, approved by the Institutional Review Board of the subject's respective study institution, was obtained from a parent/guardian.

[3] = Baseline methacholine challenge (PC20) by B2AR diplotype; type: in vivo, human; details: for Methacholine PC20: geometric mean (95% CI), corrected for baseline percent predicted FEV1
Excerpt: as §1

## CC(C)(C)NCC(O)c1ccc(O)c(CO)c1 (stereo not shown) [albuterol]
[1]; carriers of the Arg16 allele vs carriers of the Gly16 allele, subjects naïve to B2AR-agonists
  Immediate bronchial responses to albuterol: higher immediate responses
[1]; diplotype 4/6, Drysdale et al.
  Bronchodilator response (improvement in FEV1) to albuterol: highest response
[1]; homozygotes for Arg16 compared with carriers of the other two genotypes
  Lung function on regularly scheduled albuterol: significant deterioration in lung function

## CCC(=O)O[C@]1(C(=O)SCF)[C@H](C)C[C@H]2[C@@H]3C[C@H](F)C4=CC(=O)C=C[C@]4(C)[C@@]3(F)[C@@H](O)C[C@@]21C [fluticasone, fluticasone propionate]
[2]
  Fraction of children with FEV1 response to fluticasone but not to montelukast: one-fourth

## CC(=O)OC(C)C[N+](C)(C)C (stereo not shown) [methacholine]
[3]; 4/4 diplotype, n=18
  Methacholine PC20: 0.6 (0.3, 1.1) mg/ml
[3]; all other diplotypes, n=106
  Methacholine PC20: 1.4 (1.1, 1.7) mg/ml
[3]; lower in the 4/4 diplotype than in the other diplotypes, adjusted for baseline percent predicted FEV1, p=0.015
  Dose of methacholine causing a 20% fall in FEV1, difference between groups: 1.3 doubling doses
